Results as given in patent US10011597B2 (APOGLYX AB, priority 2014, dated 2018).

Molecular target: T1, human aquaporin 9 (Homo sapiens, UniProt O43315)
T1 construct: expressed in transfected cells; host or cells: Human AQP9 cell line with tetracycline added to the medium
T1 sequence (O43315 1-295): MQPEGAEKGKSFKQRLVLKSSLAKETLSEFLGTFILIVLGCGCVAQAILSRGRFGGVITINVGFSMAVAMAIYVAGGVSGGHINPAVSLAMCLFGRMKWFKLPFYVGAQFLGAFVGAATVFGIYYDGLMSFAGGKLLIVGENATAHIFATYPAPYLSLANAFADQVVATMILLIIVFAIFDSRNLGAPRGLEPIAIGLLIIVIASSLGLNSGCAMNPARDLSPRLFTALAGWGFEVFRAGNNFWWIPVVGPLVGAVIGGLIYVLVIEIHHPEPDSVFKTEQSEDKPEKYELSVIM
Experiment: Calcein quenching fluostar assay
Format: cell-based
Conditions: inhibition of human aquaporin 9; Human AQP9 cell line, tetracyclin-induced; 25° C.
Method: Calcein Quenching Fluostar Assay
A calcein quenching fluostar assay was performed in order to investigate the biological activity of the newly synthesized examples 1 to 57. This type of assay is disclosed in J. Biol. Chem., 2011, 286, 44319-44325 and Am. J. Physiol. Renal Physiol. (2010), 298, F224-230.
1) Two days prior to commencement of the assay, seed 10,000 cells/well of 96 well black clear bottom plate (Greiner Poly-lysin plate). A 1:1 mix of Dulbecco's Modified Eagle's Medium:Nutrient Mixture F-12 (DMEM: F12) was obtained from Gibco. Tetracycline stock of 5 mg/ml in 96% ethanol is used. Medium:DMEM/F12/10% Donor Bovine Serum, Human AQP9 cell line+1:270,000 tetracyclin, mouse AQP9 cell line+1:2,700,000 tetracycline.
2) Day of assay: Flick/slam off the medium and add 50 μl/well of loading solution: 5 ml DMEM/F12/10% Donor Bovine Serum, 25 μl Calcein AM—from freshly dissolved aliquot in 50 μl DMSO (VWR #734-1434), and 100 μl Probenecid.
3) Incubate the well for 90 minutes at 37° C.
4) Perform one wash with 75 μl wash buffer.
5) Add 75 μl of an example compound prepared in wash buffer per well.
Example compounds are prepared in 500 μl U bottom PP plates (NUNC). […] Substance in DMSO are added to row A; 180 μl of wash buffer+1% DMSO are added to rows B-H. 90 μl from row A are transferred and mixed with all other wells (up to row G) to make a 3-fold dilution series.
6) Assay in FLUOstar Optima at 25° C. Settings buffer addition at 135 μl seconds, add 75 μl/well, record time course for 30 seconds, add sucrose buffer 3.6 seconds into recording.
7) Normalization to initial in Excel.
8) Fit to “exponential decay” function in GraphPad Prism 5.0, then arrange half live shrinking values according to wells and fit dose-response curves.

Row | Structure (SMILES) | IC50 [nM]
1 | CCn1c(SCC(=O)Nc2nnc(-c3ccc(F)cc3)s2)nnc1-c1ccc(OC)cc1 [Example 26, 2-{[4-Ethyl-5-(4-methoxyphenyl)-4H-1,2,4-triazol-3-yl]sulfanyl}-N-[5-(4-fluorophenyl)-1,3,4-thiadiazol-2-yl]acetamide] | 477
2 | CCn1c(SCC(=O)Nc2nnc(-c3ccc(F)cc3)s2)nnc1-c1ccncc1 [Example 31, 2-{[4-Ethyl-5-(pyridin-4-yl)-4H-1,2,4-triazol-3-yl]sulfanyl}-N-[5-(4-fluorophenyl)-1,3,4-thiadiazol-2-yl]acetamide] | 99
3 | CCCn1c(SCC(=O)Nc2nnc(-c3ccc(OC)cc3)s2)nnc1-c1ccc(F)cc1 [Example 32, 2-{[5-(4-Fluorophenyl)-4-propyl-4H-1,2,4-triazol-3-yl]sulfanyl}-N-[5-(4-methoxyphenyl)-1,3,4-thiadiazol-2-yl]acetamide] | 416
4 | COc1ccc(-c2nnc(NC(=O)CSc3nnc(-c4ccc(F)cc4)n3C3CC3)s2)cc1 [Example 33, 2-{[4-Cyclopropyl-5-(4-fluorophenyl)-4H-1,2,4-triazol-3-yl]sulfanyl}-N-[5-(4-methoxyphenyl)-1,3,4-thiadiazol-2-yl]acetamide] | 978
5 | CCn1c(SCC(=O)Nc2nnc(-c3ccc(O)cc3)s2)nnc1-c1ccc(F)cc1 [Example 34, 2-{[4-Ethyl-5-(4-fluorophenyl)-4H-1,2,4-triazol-3-yl]sulfanyl}-N-[5(4-hydroxyphenyl)-1,3,4-thiadiazol-2-yl]acetamide] | 61
6 | CCn1c(SCC(=O)Nc2nnc(-c3ccc(OS(C)(=O)=O)cc3)s2)nnc1-c1ccc(F)cc1 [Example 36, 4-[5-(2-{[4-Ethyl-5-(4-fluorophenyl)-4H-1,2,4-triazol-3-yl]sulfanyl}acetamido)-1,3,4-thiadiazol-2-yl]phenyl methanesulfonate] | 129
7 | CCn1c(SCC(=O)Nc2nnc(-c3ccc(OC)cc3)s2)nnc1-c1ccc(Cl)cc1 [Example 40, 2-{[5-(4-chlorophenyl)-4-ethyl-4H-1,2,4-triazol-3-yl]sulfanyl}-N-[5-(4-methoxyphenyl)-1,3,4-thiadiazol-2-yl]acetamide] | 810
8 | CCn1c(SCC(=O)Nc2nnc(-c3ccc(OC)cc3)s2)nnc1-c1ccccn1 [Example 41, 2-{[4-ethyl-5-(pyridin-2-yl)-4H-1,2,4-triazol-3-yl]sulfanyl}-N-[5-(4-methoxyphenyl)-1,3,4-thiadiazol-2-yl]acetamide] | 260
9 | CCn1c(SCC(=O)Nc2nnc(-c3ccc(F)cc3)s2)nnc1-c1ccc(Cl)cc1 [Example 43, 2-{[5-(4-chlorophenyl)-4-ethyl-4H-1,2,4-triazol-3-yl]sulfanyl}-N-[5-(4-fluorophenyl)-1,3,4-thiadiazol-2-yl]acetamide] | 92
10 | CCn1c(SCC(=O)Nc2nnc(-c3ccc(OC)c(F)c3)s2)nnc1-c1ccc(F)cc1 [Example 45, 2-{[4-ethyl-5-(4-fluorophenyl)-4H-1,2,4-triazol-3-yl]sulfanyl}-N-[5-(3-fluoro-4-methoxyphenyl)-1,3,4-thiadiazol-2-yl]acetamide] | 182
11 | CCn1c(SCC(=O)Nc2nnc(-c3ccc(C#N)cc3)s2)nnc1-c1ccc(F)cc1 [Example 47, N-[5-(4-cyanophenyl)-1,3,4-thiadiazol-2-yl]-2-{[4-ethyl-5-(4-fluorophenyl)-4H-1,2,4-triazol-3-yl]sulfanyl}acetamide] | 114
12 | COC(=O)CCn1c(SCC(=O)Nc2nnc(-c3ccc(OC)cc3)s2)nnc1-c1ccccc1 [Example 48, Methyl 3-{3-[({[5-(4-methoxyphenyl)-1,3,4-thiadiazol-2-yl]carbamoyl}methyl)sulfanyl]-5-phenyl-4H-1,2,4-triazol-4-yl}propanoate] | 117
13 | COc1ccc(-c2nnc(NC(=O)CSc3nnc(-c4ccccc4)n3CC(N)=O)s2)cc1 [Example 50, 2-{[4-(carbamoylmethyl)-5-phenyl-4H-1,2,4-triazol-3-yl]sulfanyl}-N-[5-(4methoxyphenyl)-1,3,4-thiadiazol-2-yl]acetamide] | 200
14 | CCn1c(SCC(=O)Nc2nnc(-c3ccc(S(C)(=O)=O)cc3)s2)nnc1-c1ccc(F)cc1 [Example 53, 2-{[4-ethyl-5-(4-fluorophenyl)-4H-1,2,4-triazol-3-yl]sulfanyl}-N-[5-(4-methanesulfonylphenyl)-1,3,4-thiadiazol-2-yl]acetamide] | 134
15 | CCn1c(SCC(=O)Nc2nnc(-c3ccc(CS(C)(=O)=O)cc3)s2)nnc1-c1ccc(F)cc1 [Example 54, 2-{[4-ethyl-5-(4-fluorophenyl)-4H-1,2,4-triazol-3-yl]sulfanyl}-N-{5-[4-(methanesulfonylmethyl)phenyl]-1,3,4-thiadiazol-2-yl}acetamide] | 901

Second part, the molecule after the results:

Row | IC50 [nM] | Structure (SMILES)
16 | 366 | CCn1c(SCC(=O)Nc2nnc(-c3ccc(F)cc3)s2)nnc1-c1ccccc1F [Example 27, 2-{[4-Ethyl-5-(2-fluorophenyl)-4H-1,2,4-triazol-3-yl]sulfanyl}-N-[5-(4-fluorophenyl)-1,3,4-thiadiazol-2-yl]acetamide]
17 | 200 | CCn1c(SCC(=O)Nc2nnc(-c3ccc(F)cc3)s2)nnc1-c1cccc(F)c1 [Example 28]
18 | 427 | CCn1c(SCC(=O)Nc2nnc(-c3ccc(F)cc3)s2)nnc1-c1ccccn1 [Example 29, 2-{[4-Ethyl-5-(pyridin-2-yl)-4H-1,2,4-triazol-3-yl]sulfanyl}-N-[5-(4-fluorophenyl)-1,3,4-thiadiazol-2-yl]acetamide]
19 | 110 | CCn1c(SCC(=O)Nc2nnc(-c3ccc(F)cc3)s2)nnc1-c1cccnc1 [Example 30, 2-{[4-Ethyl-5-(pyridin-3-yl)-4H-1,2,4-triazol-3-yl]sulfanyl}-N-[5-(4-fluorophenyl)-1,3,4-thiadiazol-2-yl]acetamide]
20 | 301 | CCn1c(SC(C)C(=O)Nc2nnc(-c3ccc(OC)cc3)s2)nnc1-c1ccc(F)cc1 (stereo not shown) [Example 35, 2-{[4-Ethyl-5-(4-fluorophenyl)-4H-1,2,4-triazol-3-yl]sulfanyl}-N-[5(4-methoxyphenyl)-1,3,4-thiadiazol-2-yl]propanamide]
21 | 82 | CCn1c(SCC(=O)Nc2nnc(-c3ccc(OCCOC)cc3)s2)nnc1-c1ccc(F)cc1 [Example 37, 2-{[4-ethyl-5-(4-fluorophenyl)-4H-1,2,4-triazol-3-yl]sulfanyl}-N-{5-[4-(2-methoxyethoxy)phenyl]-1,3,4-thiadiazol-2-yl}acetamide]
22 | 190 | CCn1c(SCC(=O)Nc2nnc(-c3ccccc3F)s2)nnc1-c1ccc(F)cc1 [Example 38, 2-{[4-ethyl-5-(4-fluorophenyl)-4H-1,2,4-triazol-3-yl]sulfanyl}-N-[5-(2-fluorophenyl)-1,3,4-thiadiazol-2-yl]acetamide]
23 | 113 | CCn1c(SCC(=O)Nc2nnc(-c3ccc(OC)cc3)s2)nnc1-c1cccc(Cl)c1 [Example 39, 2-{[5-(3-chlorophenyl)-4-ethyl-4H-1,2,4-triazol-3-yl]sulfanyl}-N-[5-(4-methoxyphenyl)-1,3,4-thiadiazol-2-yl]acetamide]
24 | 168 | O=C(CSc1nnc(-c2ccc(F)cc2)n1C1CC1)Nc1nnc(-c2ccc(F)cc2)s1 [Example 44, 2-{[4-cyclopropyl-5-(4-fluorophenyl)-4H-1,2,4-triazol-3-yl]sulfanyl}-N-[5-(4-fluorophenyl)-1,3,4-thiadiazol-2-yl]acetamide]
25 | 385 | CCn1c(SCC(=O)Nc2nnc(-c3ccc(F)c(F)c3)s2)nnc1-c1ccc(F)cc1 [Example 46, N-[5-(3,4-difluorophenyl)-1,3,4-thiadiazol-2-yl]-2-{[4-ethyl-5-(4-fluorophenyl)-4H-1,2,4-triazol-3-yl]sulfanyl}acetamide]
26 | 373 | COc1ccc(-c2nnc(NC(=O)CSc3nnc(-c4ccccc4)n3CCN)s2)cc1 [Example 49, 2-{[4-(2-aminoethyl)-5-phenyl-4H-1,2,4-triazol-3-yl]sulfanyl}-N-[5-(4-methoxyphenyl) 1,3,4 thiadiazol-2-yl]acetamide]
27 | 86 | COc1ccc(-c2nnc(NC(=O)CSc3nnc(-c4ccccc4)n3CCCO)s2)cc1 [Example 51, 2-{[4-(3-hydroxypropyl)-5-phenyl-4H-1,2,4-triazol-3-yl]sulfanyl}-N-[5-(4-methoxyphenyl)-1,3,4-thiadiazol-2-yl]acetamide]
28 | 59 | COc1ccc(-c2nnc(NC(=O)CSc3nnc(-c4ccccc4)n3CCO)s2)cc1 [Example 52, 2-{[4-(3-hydroxyethyl)-5-phenyl-4H-1,2,4-triazol-3-yl]sulfanyl}-N-[5-(4-methoxyphenyl)-1,3,4-thiadiazol-2-yl]acetamide]
